The results in this text go back to patent US11149086B2, “KV1.3 binding immunoglobulins” (Ablynx N.V., priority 2014, dated 2021).

In one assay the test system is CCR7−CD45RA− T cells. The assay is classed as cell-based, human. The following applies: monovalent Nanobodies. The source says:
The purified anti-Kv1.3 Nanobodies were characterized in a T Cell-activation assay. Human T Cells were first collected from Buffy Coat blood (from healthy volunteers, Bloodbank Gent) using RosetteSep (StemCell Technologies, #15061) followed by an enrichment on Ficoll-Paque™ PLUS (GE Healthcare #17-1440-03). CCR7−CD45RA− T cells were isolated through negative selection using biotinylated antibodies against CD45RA (BD Bioscience #624008) and CCR7 (BD Bioscence #624009) in addition to the Dynabeads Biotin Binder (Invitrogen #110.47). […]
Isolated CCR7^−CD45RA^− T Cells were then stimulated on anti-CD3 (eBioscience 16-0037-85; 540 ng/ml) coated 96-well plates at a concentration of 200 000 cells/well in absence or presence of dilution series of anti-Kv1.3 antibodies and ShK positive control (Smartox, #08SHK001). After 72 h, IFN-gamma production was measured with anti-human IFNγ antibody capture in ELISA (BD Bioscence #551221) combined with biotinylated anti-human IFNγ (BD Bioscience, #554550) and streptavidin-HRP (Dakocytomation #P0397) as detection (FIG. 11A-11B).
In addition, also CD25 expression was measured in flow cytometry, using an anti-CD25 antibody (BD Pharmingen, cat 557138) (FIG. 11C-11D). […]

Assay [1] deals with DNFB-induced delayed type hypersensitivity in Wistar rats. Put plainly: DNFB-induced delayed-type hypersensitivity (DTH) rat model, ear swelling. The assay is classed as in vivo. From the text: A delayed-type hypersensitivity (DTH) reaction is an expression of T cell-mediated immunity in response to cutaneous sensitization and challenge with reactive haptens like 2, 4-dinitrofluorobenzene (DNFB), largely mediated by skin-homing effector memory T cells (Azam P et al., J Invest Dermatol 127(6):1419-29, 2007; Matheu M P et al., Immunity 29(4):602-14, 2008). The voltage-gated potassium channel Kv1.3 is expressed in T cells, and is important in maintaining T cell activation (predominantly effector memory T cells).
For the purpose of in vivo proof-of-concept, the efficacy of anti-Kv1.3 Nanobodies on DNFB-induced delayed type hypersensitivity in Wistar rats was evaluated. The DTH response in the rats was elicited as follows (see FIG. 37): on day 0 (start of the in-life) and day 1, 100 μl of 1% (wt/vol) DNFB prepared in 4:1 acetone/olive oil was applied to the shaved dorsum for sensitization. On day 5, animals were challenged on both sides of the right ear pinnae of the animals with 50 μl of 0.5% (wt/vol) DNFB prepared in 4:1 acetone: olive oil. […] As positive control, animals were treated with dexamethasone (topical, 0.75 mg at 1 hour and 6 hours post-challenge). On day 5 before DNFB challenge, the baseline right ear pinna thickness was measured, and the net ear swelling response was determined 24 hours after challenge with a spring-loaded micrometer.
The DTH response in the rats was elicited as follows (see FIG. 37): on day 0 (start of the in-life) and day 1, 100 μl of 1% (wt/vol) DNFB prepared in 4:1 acetone/olive oil was applied to the shaved dorsum for sensitization. On day 5, animals were challenged on both sides of the right ear pinnae of the animals with 50 μL of 0.5% (wt/vol) DNFB prepared in 4:1 acetone: olive oil. Animals (n=10 rats/group) received two subcutaneous (s.c.) injections of either vehicle, the benchmark compound ShK or the anti-Kv1.3 Nanobody at 12 hours and/or 1 hour preceding the challenge. As positive control, animals were treated with dexamethasone (topical, 0.75 mg at 1 hour and 6 hours post-challenge). On day 5 before DNFB challenge, the baseline right ear pinna thickness was measured, and the net ear swelling response was determined 24 hours after challenge with a spring-loaded micrometer.

Another assay deals with human PBMCs. Put plainly: IFNγ production by human PBMCs after anti-CD3 with or without anti-CD28 stimulation. The assay is classed as cell-based. The procedure: The anti-Kv1.3 inhibitory Nanobodies were evaluated for their effect on cytokine secretion by plate-bound anti-CD3/CD28 stimulated PBMCs. ShK was included as reference compound (FIG. 30). This co-stimulation of T-cells with anti-CD3 and anti-CD28 reflects strong immune stimulation as encountered during an acute infection. Single stimulation with anti-CD3 imitates rather the moderate immune stimulation resembling the situation during e.g. an autoimmune disease.
Briefly, PBMCs were first collected from Buffy Coat blood (from healthy volunteers, Bloodbank Gent) using RosetteSep (StemCell Technologies, #15061) followed by an enrichment on Ficoll-Paque™ PLUS (GE Healthcare #17-1440-03). The purity of the population was afterwards checked with anti-CD3 (eBioscience #12-0037-73); anti-CD8 (BD Bioscience #345775); anti-CD4 (BD Bioscience #345771); anti-CD45RO (BD Bioscience #555493); anti-CD45RA (BD Bioscience #550855) and anti-CD19 (BD Bioscience #555413) fluorescently labeled antibodies in a flow cytometric assay. […] After 72 h, IFN-gamma production was measured with anti-human IFNγ antibody capture in ELISA (BD Bioscence #551221) combined with biotinylated anti-human IFNγ (BD Bioscience, #554550) and streptavidin-HRP (Dakocytomation #P0397) as detection.

For the next assay, the target named is T1, human Kv1.3 (Homo sapiens, UniProt P22001).
T1 construct: cell lines stably expressing the full length human Kv1.3 channel
The assay is described as follows: FACS competition with FAM-labeled ShK on HEK293H human Kv1.3 cells. The assay is classed as binding. The following applies: 70 nM ShK-FAM. As for the experimental part: To evaluate the competition between the toxin ShK and the Nanobodies for binding to Kv1.3, a FACS competition experiment was performed using HEK293H cells overexpressing human Kv1.3 and the parental HEK293H cells as background cell line. As detection reagent, FAM-labeled ShK was used (6-FAM-AEEAc-Stichodactyla helianthus Neurotoxin (ShK) (Bachem, H-6088, 1046522, PRT00000366/01/01)). To setup the assay, first a titration series of the labeled Shk-FAM was performed on the HEK293H Kv1.3 cells in order to determine the EC50 value for binding.
In brief, a dilution series of ShK or Nanobody were added together with the labeled toxin to 200 000 cells in a 96-well plate. After 90 minutes incubation at 4° C., cells were washed three times before read out was performed on a FACS Canto (Becton Dickinson). First a gate was set on the intact cells as determined from the scatter profile. Next, dead cells were gated out by their fluorescence profile from the TOPRO stain (5 nM, Molecular probes, T3605). […] The percentage of inhibition for Nanobodies blocking the interaction of ShK to human Kv1.3 is depicted in Table B-11.

Bridge positions count the residues as written; N and C are the ends. Peptide text beside a SMILES is read from it.

T1 sequence (P22001 whole entry): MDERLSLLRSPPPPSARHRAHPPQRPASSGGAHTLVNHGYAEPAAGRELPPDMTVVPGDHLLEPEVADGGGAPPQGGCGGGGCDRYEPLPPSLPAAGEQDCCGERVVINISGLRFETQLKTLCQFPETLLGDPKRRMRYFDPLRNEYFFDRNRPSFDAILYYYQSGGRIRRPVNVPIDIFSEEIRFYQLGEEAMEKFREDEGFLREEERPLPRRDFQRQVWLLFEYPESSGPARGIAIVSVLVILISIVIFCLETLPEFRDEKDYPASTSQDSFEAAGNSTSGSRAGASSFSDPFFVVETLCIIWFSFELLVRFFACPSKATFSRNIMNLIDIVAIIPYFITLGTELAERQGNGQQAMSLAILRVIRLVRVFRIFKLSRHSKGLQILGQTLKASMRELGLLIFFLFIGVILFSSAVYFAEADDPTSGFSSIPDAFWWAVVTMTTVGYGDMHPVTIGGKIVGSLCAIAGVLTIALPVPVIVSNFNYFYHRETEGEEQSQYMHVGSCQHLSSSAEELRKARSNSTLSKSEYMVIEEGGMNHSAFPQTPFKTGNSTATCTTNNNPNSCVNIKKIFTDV

As a reminder, the IC50 is the concentration needed to halve the response being measured. Consider `CC[C@H](C)[C@H](NC(=O)[C@@H](N)[C@@H](C)O)C(=O)N[C@H](C(=O)N[C@@H](CC(N)=O)C(=O)N[C@H](C(=O)N[C@@H](CCCCN)C(=O)N[C@H]1CSSC[C@@H]2NC(=O)[C@H](CCCCN)NC(=O)[C@H](C)NC(=O)CNC(=O)[C@H](C)NC(=O)[C@H](CO)NC(=O)[C@H](CCC(N)=O)NC(=O)CNC(=O)[C@H](Cc3ccccc3)NC(=O)[C@H](CCC(N)=O)NC(=O)[C@H](C)NC(=O)[C@H](CCCCN)NC(=O)[C@@H]3CSSC[C@@H](C(=O)N[C@@H](Cc4ccc(O)cc4)C(=O)N4CCC[C@H]4C(=O)N[C@@H](Cc4c[nH]cn4)C(=O)O)NC(=O)[C@H](CCCCN)NC(=O)[C@H](CSSC[C@H](NC(=O)[C@H](CCC(N)=O)NC(=O)[C@H](CCCCN)NC(=O)[C@@H]4CCCN4C(=O)[C@H](CO)NC(=O)[C@H]([C@@H](C)O)NC1=O)C(=O)N[C@@H](CC(C)C)C(=O)N1CCC[C@H]1C(=O)N1CCC[C@H]1C(=O)N3)NC(=O)[C@H](CCCCN)NC(=O)CNC(=O)[C@H](CC(N)=O)NC(=O)[C@H](CCSC)NC2=O)C(C)C)[C@@H](C)CC` [MgTX, margatoxin, reference compound] (H-TIINVKCTSPKQCLPPCKAQFGQSAGAKCMNGKCKCYPH-OH; disulfide 7-29, 13-34, 17-36; N-terminus and C-terminus assumed), for which the “IC50 (in M) CD25 read out” value with CCR7−CD45RA− T cells (plate bound anti-CD3) is listed as “no fit”. Moreover, the IC50 in the assay on CCR7−CD45RA− T cells (plate bound anti-CD3, 72 h, read-out: IC50 (in M) IFNγ read out) was 0.094 nM.

Turning to `C[C@@H]1C[C@H]2[C@@H]3CCC4=CC(=O)C=C[C@]4(C)[C@@]3(F)[C@@H](O)C[C@]2(C)[C@@]1(O)C(=O)CO` [dexamethasone], the “mean increase in ear thickness” value worked out at 0.027±0.017 mm in assay [1] (Example 12, topical 0.75 mg at 1 h and 6 h post-challenge, 24 h after challenge); 0.018±0.016 mm in assay [1] (Example 13, topical 0.75 mg at 1 h and 6 h post-challenge).

Regarding `CC[C@H](C)[C@@H]1NC(=O)[C@@H](NC(=O)[C@H](CO)NC(=O)[C@@H](N)CCCNC(=N)N)CSSC[C@@H](C(=O)O)NC(=O)[C@H]([C@@H](C)O)NC(=O)CNC(=O)[C@@H]2CSSC[C@@H]3NC(=O)[C@H](CCC(N)=O)NC(=O)[C@H](Cc4ccccc4)NC(=O)[C@H](C)NC(=O)[C@H]([C@@H](C)O)NC(=O)[C@H](CSSC[C@H](NC(=O)[C@H](Cc4ccccc4)NC(=O)[C@H](CO)NC(=O)[C@H](CC(C)C)NC(=O)[C@H](CCCNC(=N)N)NC(=O)[C@H](Cc4ccc(O)cc4)NC(=O)[C@H](CCCCN)NC(=O)[C@H](CCSC)NC(=O)[C@H](CO)NC(=O)[C@H](Cc4c[nH]cn4)NC(=O)[C@H](CCCCN)NC3=O)C(=O)N[C@@H](CCCNC(=N)N)C(=O)N[C@@H](CCCCN)C(=O)N[C@@H]([C@@H](C)O)C(=O)N2)NC(=O)[C@H](CCCNC(=N)N)NC(=O)[C@H](CO)NC(=O)[C@H](CCCCN)NC(=O)[C@@H]2CCCN2C(=O)[C@H]([C@@H](C)CC)NC(=O)[C@H]([C@@H](C)O)NC(=O)[C@H](CC(=O)O)NC1=O` [ShK], the “IFNγ production, PBMCs co-stimulated with anti-CD3 and anti-CD28” value in the assay with human PBMCs (anti-CD3 and anti-CD28, 72 h) is given as “do not inhibit”. Moreover, the “IFNγ production, PBMCs stimulated with anti-CD3 only” value in the assay on human PBMCs (single anti-CD3 stimulation, 72 h) was “Inhibition”. Also, the “mean increase in ear thickness” value in assay [1] (Example 12, two s.c. injections of 10 μg/kg, 12 h and 1 h pre-challenge) is recorded as 0.213±0.019 mm; in assay [1] (Example 13, two s.c. injections of 100 μg/kg) it was 0.136±0.024 mm. Further, the “blocking of FAM labeled ShK binding to Kv1.3, in words” value on human Kv1.3 is on record as “completely blocked”.
